{
  "source": "patent US8633005B2",
  "about": "“Isocyclomaltooligosaccharide(s), isocyclomaltooligosaccharide-forming enzyme, their preparation and uses” (Hayashibara Co., Ltd., priority 2004, dated 2014)",
  "key": {"pancreas α-amylase": {"tested_on": "pancreas α-amylase", "assay": "Digestibility of ICM by pancreas α-amylase", "conditions": "reducing saccharides/total saccharides x100", "from_the_text": "(§1) 43, 23-29 (1990), the digestibility of ICM by salivary α-amylase, artificial gastric juice, pancreas amylase, and small intestinal enzymes were investigated using ICG5, used in Experiment 15. […] In Table 18, the digestion (%) means a value calculated by the formula: Digestion (%)=(The amount of reducing saccharides/The amount of the total saccharides)×100 , in respective reaction described above."}, "[1]": {"assay": "Digestibility of ICM by artificial gastric juice", "conditions": "reducing saccharides/total saccharides x100", "from_the_text": "as §1"}, "small intestinal enzymes [2]": {"tested_on": "small intestinal enzymes", "assay": "Digestibility of ICM by small intestinal enzymes", "conditions": "reducing saccharides/total saccharides x100", "from_the_text": "as §1"}, "ICM-forming enzyme": {"tested_on": "ICM-forming enzyme", "assay": "Action on various saccharides (substrate specificity, TLC)", "type": "biochemical, Bacillus circulans AM7", "design": "key: −: Not changed; +: Spot of substrate is slightly decreased and the formation of ICM are detected; ++: Spot of substrate is markedly decreased and the formation of ICM are detected; +++: Spot of substrate is virtually disappeared and the formation of ICM are detected", "conditions": "substrate 2% (w/v), one unit/g-substrate enzyme, 40° C., pH 6.0, 24 hours", "protocol": "Substrate specificity of ICM-forming enzyme was investigated using various saccharides as substrates. Substrate solutions were prepared by dissolving maltose, maltotriose, maltotetraose, maltopentaose, maltohexaose, maltoheptaose, neotrehalose, trehalose, kojibiose, nigerose, isomaltose, isomaltotriose, panose, isopanose, maltitol, maltotriitol, α-, β-, or γ-cyclodextrin, amylose, soluble starch, glycogen, pullulan or dextran in water. Each substrate solution was admixed with acetate buffer (pH 6.0) and CaCl2 to give final concentrations of 20 mM and 1 mM, respectively. […] Substrate concentration was set to 2% (w/v) and followed by the enzyme reaction at 40° C. and pH 6.0 for 24 hours. To examine the saccharides in each mixture before and after the reaction, saccharides were separated by silica gel thin-layer chromatography (hereinafter, simply abbreviated as “TLC”) using “KIESELGEL 60”, a TLC aluminum plate (10×20 cm) and a solvent (n-butanol/pyridine/water, volume ratio of 6:4:1) and two-times ascending method. The separated saccharides on the plate were detected by visualizing the spots with sulfate-methanol method. By the above TLC analyses, the enzymatic action and the degree of the reaction of ICM-forming enzyme on each substrate were confirmed."}, "salivary α-amylase": {"target": "T1, salivary α-amylase (Homo sapiens, UniProt P0DUB6)", "T1 sequence (P0DUB6 16-511)": "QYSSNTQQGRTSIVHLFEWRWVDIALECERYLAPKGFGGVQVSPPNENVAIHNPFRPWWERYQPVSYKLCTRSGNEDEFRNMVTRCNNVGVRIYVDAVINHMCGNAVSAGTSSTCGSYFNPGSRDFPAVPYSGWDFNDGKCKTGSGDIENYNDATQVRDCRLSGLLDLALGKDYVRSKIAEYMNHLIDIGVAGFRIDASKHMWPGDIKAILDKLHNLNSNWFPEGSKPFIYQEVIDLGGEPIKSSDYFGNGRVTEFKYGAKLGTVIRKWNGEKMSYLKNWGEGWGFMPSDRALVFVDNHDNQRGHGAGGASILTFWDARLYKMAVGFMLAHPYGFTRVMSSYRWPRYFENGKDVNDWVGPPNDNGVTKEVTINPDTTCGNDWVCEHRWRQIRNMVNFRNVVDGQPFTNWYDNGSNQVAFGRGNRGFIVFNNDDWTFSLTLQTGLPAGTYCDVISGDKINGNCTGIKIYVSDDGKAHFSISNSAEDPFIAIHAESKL", "assay": "Digestibility of ICM by salivary α-amylase", "conditions": "reducing saccharides/total saccharides x100", "from_the_text": "as §1"}, "[3]": {"assay": "Amino-carbonyl reaction with polypeptone", "type": "physicochemical", "conditions": "with 5% (w/v) polypeptone, 120° C., blank subtracted", "protocol": "ICG5 used in Experiment 15 and commercially available polypeptone, commercialized by Nihon Pharmaceutical Co., Ltd., Tokyo, Japan, were dissolved in deionized water to make into an aqueous solution containing […] and 5% (w/v) of polypeptone. As a control, an aqueous solution containing α-CD and polypeptone was prepared in the same manner using α-CD in place of ICG5. Four milliliters each of the solution was put in a glass tube, sealed and then heated at 120° C. for 30, 60, or 90 min. After cooling the solutions in ambient temperature, the degrees of coloring of the solutions were measured to estimate the degree of amino-carbonyl reaction. As a blank test, a solution containing polypeptone only was heated in the same manner. The degree of coloring was defined as an absorbance at 480 nm using a 1 cm-cell after subtracting the absorbance of the blank test."}, "[4]": {"assay": "Clathrating action of ICM (amount of compound clathrated, gas-chromatography)", "type": "physicochemical", "conditions": "3-folds molar amount", "protocol": "ICG5 used in Experiment 15, was dissolved in deionized water to make into an aqueous solution containing 20% (w/v) of ICG5. Twenty milliliters of the aqueous solution was admixed with 3-folds amount, on a molar basis to ICG5, of either of four kinds of short chain alcohols, i.e., methanol, ethanol, propanol, and butanol; four kinds of short chain fatty acids, i.e., acetic acid, propionic acid, n-butyric acid, and n-valeic acid; and four kinds of aromatic compounds, i.e., benzyl alcohol, phenethyl alcohol, 4-phenyl-1-propanol, and o-cresol; and then stirred the mixture to homogeneity for allowing ICG5 to clathrate the compound. Successively, each solution was filtrated, and the resulting filtrate was freeze-dried to remove unclathrated compound. In order to measure the amount of compound clathrated in the freeze-dried product, the amount of each compound in each freeze-dried product was determined by gas-chromatography. Alpha-CD was used as a control and subjected to the similar test."}, "[5]": {"assay": "Amino-carbonyl reaction with glycine", "type": "physicochemical", "conditions": "5% (w/v) saccharide + 1% (w/v) glycine, pH 7.0, 120° C., blank subtracted", "protocol": "ICG5, used in Experiment 15 and commercially available super high-grade glycine were dissolved in deionized water, and then admixed with phosphate buffer to make into an aqueous ICG5 solution containing 5% (w/v) of ICG5 and 1% (w/v) glycine, adjusted to pH 7.0. As a control, an aqueous α-cyclodextrin (α-CD) solution containing α-CD and glycine was prepared in the same manner using α-CD in place of ICG5. Four milliliters each of the solution was put in a glass tube, sealed and then heated at 120° C. for 30, 60, or 90 min. After cooling the solutions in ambient temperature, the degrees of coloring of the solutions were measured to estimate the degree of amino-carbonyl reaction. As a blank test, a solution containing glycine only was heated in the same manner. The degree of coloring was defined as an absorbance at 480 nm using a 1 cm-cell after subtracting the absorbance of the blank test."}, "small intestinal enzymes [6]": {"tested_on": "small intestinal enzymes", "from_the_text": "as §1"}},
  "note": "Where two headings read alike, the source gives them in different places.",
  "data": [
    {"smiles": "OC[C@H]1O[C@@H]2O[C@H]3[C@H](O)[C@@H](O)[C@@H](O[C@H]4[C@H](O)[C@@H](O)[C@@H](O[C@H]5[C@H](O)[C@@H](O)[C@@H](O[C@H]6[C@H](O)[C@@H](O)[C@@H](O[C@H]7[C@H](O)[C@@H](O)[C@@H](O[C@H]8[C@H](O)[C@@H](O)[C@@H](O[C@H]1[C@H](O)[C@H]2O)O[C@@H]8CO)O[C@@H]7CO)O[C@@H]6CO)O[C@@H]5CO)O[C@@H]4CO)O[C@@H]3CO", "note": "[β-CD, β-cyclodextrin]", "values": [
      {"measurement": "Digestion", "setting": "pancreas α-amylase", "result": 0.2, "unit": "%"},
      {"measurement": "Digestion", "setting": "[1]", "result": 0, "unit": "%"},
      {"measurement": "Digestion", "setting": "small intestinal enzymes [2]", "result": 1.1, "unit": "%"},
      {"measurement": "Action", "setting": "ICM-forming enzyme", "result": "−"},
      {"measurement": "Digestion", "setting": "salivary α-amylase", "result": 0, "unit": "%"}
    ]},
    {"smiles": "OC[C@H]1O[C@@H]2O[C@H]3[C@H](O)[C@@H](O)[C@@H](O[C@H]4[C@H](O)[C@@H](O)[C@@H](O[C@H]5[C@H](O)[C@@H](O)[C@@H](O[C@H]6[C@H](O)[C@@H](O)[C@@H](O[C@H]7[C@H](O)[C@@H](O)[C@@H](O[C@H]8[C@H](O)[C@@H](O)[C@@H](O[C@H]9[C@H](O)[C@@H](O)[C@@H](O[C@H]1[C@H](O)[C@H]2O)O[C@@H]9CO)O[C@@H]8CO)O[C@@H]7CO)O[C@@H]6CO)O[C@@H]5CO)O[C@@H]4CO)O[C@@H]3CO", "note": "[γ-CD, γ-cyclodextrin]", "values": [
      {"measurement": "Digestion", "setting": "pancreas α-amylase", "result": 5.4, "unit": "%"},
      {"measurement": "Digestion", "setting": "[1]", "result": 0, "unit": "%"},
      {"measurement": "Digestion", "setting": "small intestinal enzymes [2]", "result": 57.4, "unit": "%"},
      {"measurement": "Action", "setting": "ICM-forming enzyme", "result": "−"},
      {"measurement": "Digestion", "setting": "salivary α-amylase", "result": 0.1, "unit": "%"}
    ]},
    {"smiles": "OC[C@H]1O[C@@H]2O[C@H]3[C@H](O)[C@@H](O)[C@@H](O[C@H]4[C@H](O)[C@@H](O)[C@@H](O[C@H]5[C@H](O)[C@@H](O)[C@@H](O[C@H]6[C@H](O)[C@@H](O)[C@@H](O[C@H]7[C@H](O)[C@@H](O)[C@@H](O[C@H]1[C@H](O)[C@H]2O)O[C@@H]7CO)O[C@@H]6CO)O[C@@H]5CO)O[C@@H]4CO)O[C@@H]3CO", "note": "[α-CD, α-cyclodextrin]", "values": [
      {"measurement": "Degree of coloring", "setting": "[3]; heating time 0 min", "result": 0.01, "unit": "A480 nm"},
      {"measurement": "Degree of coloring", "setting": "[3]; heating time 30 min", "result": 0.03, "unit": "A480 nm"},
      {"measurement": "Degree of coloring", "setting": "[3]; heating time 60 min", "result": 0.04, "unit": "A480 nm"},
      {"measurement": "Degree of coloring", "setting": "[3]; heating time 90 min", "result": 0.06, "unit": "A480 nm"},
      {"measurement": "Digestion", "setting": "pancreas α-amylase", "result": 0, "unit": "%"},
      {"measurement": "Amount of compound clathrated", "setting": "[4]; objective compound: 4-Phenyl 1-propanol (aromatic compound)", "result": 171.5, "unit": "mg/g-freeze-dried product"},
      {"measurement": "Amount of compound clathrated", "setting": "[4]; objective compound: Acetic acid (short chain fatty acid)", "result": 15.1, "unit": "mg/g-freeze-dried product"},
      {"measurement": "Amount of compound clathrated", "setting": "[4]; objective compound: Benzyl alcohol (aromatic compound)", "result": 165.7, "unit": "mg/g-freeze-dried product"},
      {"measurement": "Amount of compound clathrated", "setting": "[4]; objective compound: Butanol (short chain alcohol)", "result": 79.5, "unit": "mg/g-freeze-dried product"},
      {"measurement": "Amount of compound clathrated", "setting": "[4]; objective compound: Ethanol (short chain alcohol)", "result": 36.7, "unit": "mg/g-freeze-dried product"},
      {"measurement": "Amount of compound clathrated", "setting": "[4]; objective compound: Methanol (short chain alcohol)", "result": 16.7, "unit": "mg/g-freeze-dried product"},
      {"measurement": "Amount of compound clathrated", "setting": "[4]; objective compound: Phenethyl alcohol (aromatic compound)", "result": 144.4, "unit": "mg/g-freeze-dried product"},
      {"measurement": "Amount of compound clathrated", "setting": "[4]; objective compound: Propanol (short chain alcohol)", "result": 66.8, "unit": "mg/g-freeze-dried product"},
      {"measurement": "Amount of compound clathrated", "setting": "[4]; objective compound: Propionic acid (short chain fatty acid)", "result": 16.6, "unit": "mg/g-freeze-dried product"},
      {"measurement": "Amount of compound clathrated", "setting": "[4]; objective compound: n-Butyric acid (short chain fatty acid)", "result": 13.2, "unit": "mg/g-freeze-dried product"},
      {"measurement": "Amount of compound clathrated", "setting": "[4]; objective compound: n-Valeic acid (short chain fatty acid)", "result": 45.0, "unit": "mg/g-freeze-dried product"},
      {"measurement": "Amount of compound clathrated", "setting": "[4]; objective compound: o-Cresol (aromatic compound)", "result": 49.5, "unit": "mg/g-freeze-dried product"},
      {"measurement": "Degree of coloring", "setting": "[5]; heating time 0 min", "result": 0.02, "unit": "A480 nm"},
      {"measurement": "Degree of coloring", "setting": "[5]; heating time 30 min", "result": 0.02, "unit": "A480 nm"},
      {"measurement": "Degree of coloring", "setting": "[5]; heating time 60 min", "result": 0.03, "unit": "A480 nm"},
      {"measurement": "Degree of coloring", "setting": "[5]; heating time 90 min", "result": 0.02, "unit": "A480 nm"},
      {"measurement": "Action", "setting": "ICM-forming enzyme", "result": "−"},
      {"measurement": "Digestion", "setting": "salivary α-amylase", "result": 0, "unit": "%"},
      {"measurement": "Digestion", "setting": "small intestinal enzymes [6]", "result": 0.2, "unit": "%"}
    ]}
  ]
}
